In PMC7730182, “Synthesis and in Silico Modelling of the Potential Dual Mechanistic Activity of Small Cationic Peptides Potentiating the Antibiotic Novobiocin against Susceptible and Multi-Drug Resistant Escherichia coli” (International Journal of Molecular Sciences, 2020):

Assays:
[1] = system: Escherichia coli NCTC 10418; test: microbe, parasite or virus in culture; type: cell-based; conditions: Escherichia coli, NCTC10418; compound alone; broth microdilution, Iso-Sensitest Broth, range 128–0 μg/mL, 5 × 10^5 CFU/mL, visual read-out; duplicate; read-out: MIC, E. coli NCTC 10418
Protocol: (§1) The Minimum Inhibitory Concentrations (MIC) of compounds 1–27 were evaluated through a broth microdilution assay against susceptible strains of Escherichia coli (Gram–negative) and Staphylococcus aureus (Gram-positive).
(§2) The antibacterial activity of the peptides and peptide/antibiotic combinations were tested by the broth microdilution assay according to [24]. Escherichia coli NCTC 10,418 and Staphylococcus aureus NCTC 12,981 were obtained from the National Collection of Type Cultures, UK. Escherichia coli G69 was a clinical isolate as previously described.
(§3) Briefly, all bacterial strains were cultured on nutrient agar (Sigma-Aldrich, Gillingham, UK) plates and incubated for 24 h at 37 °C prior to MIC determination. In addition, known quantities of each test sample were dissolved in DMSO and then diluted in ISB (Iso- Sensitest Broth, Oxoid, Basingstoke, UK) to give a range concentration of 128–0 μg/mL, unless stated differently. […] Finally, the overnight cultures of each of the tested strains were suspended to an inoculum density of approximately 1.0 × 10^8 CFU/mL in phosphate buffered saline (PBS), consisting of 137 mM NaCl, 3 mM KCl, 8 mM Na2HPO4, and […] (Oxoid, Basingstoke, UK). The cell suspensions were standardized by adjusting the optical density to 0.1 at 600 nm (Thermo Scientific UV-Vis Spectrophotometer, Abingdon, UK) before being diluted 1:100 in ISB prior to inoculation
(§4) The assays were performed by microdilution using 96-well microtiter plates with a final inoculum of 5 × 10^5 CFU/mL and each sample was tested in duplicate in at least two independent experiments in order to confirm the reliability of the data. Results were determined by visual inspection of the wells and the presence of an evident opaque medium or white pellets were indicative of bacterial growth. The MIC values were recorded as the lowest concentration at which no bacterial growth was detected.
(§5) Table S4. Minimum inhibitory concentration (MIC) of synthesised peptides and of reference antibiotics
(§6) novobiocin and norfloxacin.

[2] = system: Staphylococcus aureus NCTC 12981; test: microbe, parasite or virus in culture; type: cell-based; conditions: Staphylococcus aureus, NCTC12981; compound alone; broth microdilution, Iso-Sensitest Broth, range 128–0 μg/mL, 5 × 10^5 CFU/mL, visual read-out; duplicate; read-out: MIC, S. aureus NCTC 12981
Protocol: as §1, §2, §3, §4, §5, §6

[3] = system: multi-drug resistant clinical isolate E. coli G69; test: Novobiocin potentiation assay (MIC of novobiocin with fixed concentration of peptide or PAβN); type: cell-based, Escherichia coli; conditions: Escherichia coli; novobiocin alone, no peptide; broth microdilution; duplicate
Protocol: (§7) The peptides were also tested in combination with antibiotics novobiocin and norfloxacin. Novobiocin has low efficacy against Gram-negative bacteria due to its hydrophobicity, giving limited cell permeability.
as §2, §3, §4

[4] = system: susceptible E. coli NCTC 10418; test: as above; type: cell-based, Escherichia coli; conditions: Escherichia coli, NCTC10418; novobiocin alone, no peptide; broth microdilution; duplicate
Protocol: as §7, §2, §3, §4

[5] = system: multidrug resistant clinical isolate E. coli G69; test: Norfloxacin potentiation assay (MIC of norfloxacin with fixed concentration of peptide or PAβN); type: cell-based, Escherichia coli; conditions: Escherichia coli; norfloxacin alone; broth microdilution; duplicate
Protocol: (§8) In order to gather more evidence on the potential mechanisms of action, the effects of the peptides in combination with the quinolone antibiotic norfloxacin were determined. Norfloxacin is active against Gram-negative bacteria, generally achieving entry via porin channels, but is also able to enter the bacterial cell via the membrane in porin-deficient mutants. Therefore, any membrane permeability mechanism would not be expected to have a significant effect on improving the activity of norfloxacin in porin-competent strains. This is indeed what was observed (Table S5), which added weight to our hypothesis that our very short peptides may be acting as membrane permeability enhancers for novobiocin.
as §2
as §3, with “inoculation […]” for “inoculation”
as §4, with “detected. […]” for “detected.”
(§9) potentiating novobiocin. Assays were performed at fixed concentration of 128 μg/mL against susceptible E. coli 10418 and multidrug resistant clinical isolate E. coli G69. Potentiation assay for norfloxacin was also performed in presence of 64 μg/mL of RND efflux pump inhibitor PAβN. All tests were repeated in […]
(§10) Compound Sequence MIC of norfloxacin (μg/mL) […]
(§11) inhibitor PaβN but no potentiation was observed, so the assay was not repeated at lower concentrations.

[6] = system: susceptible E. coli 10418; test: as above; type: cell-based, Escherichia coli; conditions: Escherichia coli, E.COLI10418; norfloxacin alone; broth microdilution; duplicate
Protocol: as §8, §2
as §3, with “inoculation […]” for “inoculation”
as §4, with “detected. […]” for “detected.”
as §9, §10, §11

Row | SMILES | MIC [1] | MIC [2] | MIC [3] | MIC [4] | MIC [5] | MIC [6]
1 | CO[C@@H]1[C@@H](OC(N)=O)[C@@H](O)[C@H](Oc2ccc3c(O)c(NC(=O)c4ccc(O)c(CC=C(C)C)c4)c(=O)oc3c2C)OC1(C)C [Novobiocin] | 32 µg/mL | 4 µg/mL | > 128 µg/mL | 32 µg/mL | – | –
2 | CCn1cc(C(=O)O)c(=O)c2cc(F)c(N3CCNCC3)cc21 [Norfloxacin, reference compound] | 0.062 µg/mL | 2 µg/mL | – | – | > 128 µg/mL | 0.062 µg/mL
